ChEMBL document CHEMBL1144145, “Sesquiterpene polyol esters from the leaves of maytenus macrocarpa” (J Nat Prod, 1999)

Experiments:
Format in all cases: functional, cell-based
A549 = assay: Cytotoxicity against human A549 cells by […]
HT-29 = assay: Cytotoxicity against human HT-29 cells by […]
P388 = assay: Cytotoxicity against mouse P388 cells by […]
[1] = Cytotoxicity against human MEL28 cells by […]; details: SK-MEL-28

Measured: IC50

CC(=O)OC[C@@]12[C@@H](OC(=O)c3ccccc3)CC[C@](C)(O)[C@]13OC(C)(C)[C@H]([C@H](OC(C)=O)[C@H]2OC(=O)c1ccccc1)[C@H]3OC(C)=O
> 25 µg/mL: A549 | HT-29 | P388 | [1]
